Results taken from US5958946A, “Modulation of hair growth” (priority 1998, dated 1999).

How the values were obtained:
[1] = tested on: androgen-stimulated hair growth of flank organs; experiment: Golden Syrian hamster assay (flank organ hair mass); format: in vivo; conditions: topical, 10% dose, thirteen applications, vehicle A, B or C per compound; for Left(mg) (hair mass of the compound-treated flank organ): 10 μl once a day
Excerpt: Male intact Golden Syrian hamsters are considered acceptable models for human beard hair growth and other androgen-stimulated hair growth in that they display oval shaped flank organs, one on each side, each about 8 mm. in major diameter, which grow thick black and coarse hair similar to human beard hair. These organs produce hair in response to androgens in the hamster. To evaluate the effectiveness of a composition in reducing androgen-stimulated hair growth, the flank organs of each of a group of hamsters are shaved. To one organ of each animal 10 μl. of composition vehicle alone once a day is applied, while to the other organ of each animal an equal amount of the composition (including the relevant compound or compounds). After thirteen applications (one application per day for five days a week), the flank organs are shaved and the amount of recovered hair (hair mass) from each is weighed. Percent-reduction of hair growth is calculated by subtracting the hair mass (mg) value of the test compound treated side from the hair mass value of the vehicle treated side; the delta value obtained is then divided by the hair mass value of the vehicle treated side, and the resultant number is multiplied by 100.
The above-described assay will be referred to herein as the "Golden Syrian hamster" assay. Preferred compositions provide a reduction in hair growth of at least about 30%, more preferably at least about 50%, and most preferably at least about 60% when tested in the Golden Syrian hamster assay.
A number of compositions containing compounds that induce or activate UGTs for which testosterone is a substrate were tested in the Golden Syrian hamster assay; the results are provided in Table I: […]

[2] = tested on: glucuronidation of testosterone (UGTs); experiment: Induction of testosterone glucuronide formation in flank organ homogenates; format: biochemical, Golden Syrian hamster; conditions: flank organ protein, [14C]-testosterone 125 μM, UDP-glucuronic acid 5 mM, 37° C., 60 minutes
Procedure: An assay was performed to evaluate whether some of the compounds tested in the Golden Syrian Hamster assay caused an induction of testosterone glucuronide formation.
Flank organ homogenates were prepared by adding 4 flank organs into 2 mL of a buffer containing 25 mM Tris/50 mM sucrose, pH 7.4 and homogenized with a Polytron (Brinkman Instruments) while keeping the mixture on ice. The glucuronidation of testosterone was measured by incubating the 20 μl of the flank organ protein (1 mg/ml) with [^14 C]-testosterone testosterone 125 μM and UDP-glucuronic acid (5 mM) in the presence of buffer containing 0.5M Tris, pH 7.5 and 0.1M MgCl2. The total reaction mixture volume was 100 μl. Assay mixtures were incubated at 37° C. for 60 minutes, and reactions were stopped with the addition of 3.5 ml methylene chloride. An aqueous carrier (250 μl water) was added to each reaction mixture which was then shaken and centrifuged. The unmetabolized [^14 C]-testosterone remained in the organic phase whereas the testosterone glucuronide partitioned into the aqueous phase, and was quantitated by scintillation spectrometry.

flank organs = experiment: Flank organ diameter by caliper after topical treatment; format: in vivo, Golden Syrian hamster; conditions: for effect on flank organ diameter (in words): topical application; for % Decrease (flank organ diameter) / Decrease (mm) (flank organ diameter, treated vs vehicle) / Treated FO (mm) (flank organ diameter): topical treatment as in the hair mass assay
Procedure: It was believed that the diversion of testosterone away from its biologically active species to a glucuronide or sulfonate conjugate would have effects on the flank organs of the Golden Syrian hamster since testosterone is known to regulate the existence of these unique organs. The diameter of flank organs were assessed using a caliper following topical treatment of the hamsters with ethoxyquin or 5,7-dihydroxy-4'-methoxyflavone as described in the hair mass assay section.

Row | Compound | Left(mg) (hair mass of the compound-treated flank organ) [1] | % Inhibition (percent reduction of hair growth vs vehicle-treated side) [1] [%] | % Induction (testosterone glucuronide formation) [2] [%] | effect on flank organ diameter (in words) (flank organs) | % Decrease (flank organ diameter) (flank organs) [%] | Decrease (mm) (flank organ diameter, treated vs vehicle) (flank organs) | Treated FO (mm) (flank organ diameter) (flank organs)
1 | O=C1C[C@@H](c2ccc(O)cc2)Oc2cc(O)cc(O)c21 [naringenin] | 1.42 ± .18 mg | 40 ± 8 |  |  |  |  | 
2 | CCC1(c2ccccc2)C(=O)NC(=O)NC1=O [phenobarbital, reference compound] | 0.89 ± .16 mg | 51 ± 11 | 113 |  |  |  | 
3 | COc1ccc(-c2cc(=O)c3c(O)cc(O)cc3o2)cc1 [5,7-dihydroxy-4'-methoxyflavone] | 1.00 ± .22 mg | 62 ± 9 | 120 | decrease in flank organ diameter | 12 ± 5 | 1.04 ± .46 mm | 8.04 ± .29 mm
4 | COc1ccc(O)c(C(C)(C)C)c1 [butylhydroxyanisole] | 0.92 ± .24 mg | 61 ± 9 | 178 |  |  |  | 
5 | O=C1CC(c2ccccc2)Oc2ccccc21 (centres unmarked) [flavanone] | 1.91 ± .22 mg | 17 ± 10 |  |  |  |  | 
6 | CCOc1ccc2c(c1)C(C)=CC(C)(C)N2 [ethoxyquin] | 0.55 ± .16 mg | 75 ± 7 | 214 | decrease in flank organ diameter | 19 ± 4 | 1.65 ± .37 mm | 7.18 ± .26 mm
7 | Cc1cc(C(C)(C)C)c(O)c(C(C)(C)C)c1 [butylhydroxytoluene] | 1.74 ± .38 mg | 22 ± 18 |  |  |  |  | 
